pIC50: −log10 of the molar value. Calls of active or inactive are those of the source. No cut-off for these calls is given here.
Key:
[1] = Selectivity index, ratio of IC50 for cytotoxicity against human HEK293 cells to IC50 for antiplasmodial activity against chloroquine-resistant Plasmodium falciparum Dd2 ring stage; format: toxicity, cell-based; settings: read-out: Ratio IC50
HEK293 [2] = assay: Cytotoxicity against human HEK293 cells assessed as reduction in cell viability after 72 hrs by resazurin dye based assay; settings: HEK293, 72 h
Plasmodium falciparum [3] = assay: Antiplasmodial activity against chloroquine-resistant Plasmodium falciparum Dd2 ring stage incubated for 72 hrs by DAPI-staining based imaging analysis; format: functional, organism-based; settings: Dd2, 72 h
[4] = Selectivity index, ratio of IC50 for cytotoxicity against human HEK293 cells to IC50 for antiplasmodial activity against chloroquine-sensitive Plasmodium falciparum 3D7 ring stage; format: toxicity, cell-based; settings: read-out: Ratio IC50
Plasmodium falciparum [5] = assay: Antiplasmodial activity against chloroquine-sensitive Plasmodium falciparum 3D7 ring stage incubated for 72 hrs by DAPI-staining based imaging analysis; format: functional, organism-based; settings: 3D7, 72 h
HEK293 [6] = assay: Cytotoxicity against human HEK293 cells assessed as reduction in cell viability at 40 uM after 72 hrs by resazurin dye based assay; settings: hek293, 72 h
HEK293 [7] = assay: Cytotoxicity against human HEK293 cells assessed as reduction in cell viability at 0.1 uM after 72 hrs by resazurin dye based assay; settings: hek293, 72 h
HEK293 [8] = assay: Cytotoxicity against human HEK293 cells assessed as reduction in cell viability at 4 uM after 72 hrs by resazurin dye based assay relative to control; settings: hek293, 72 h
Plasmodium falciparum [9] = assay: Antiplasmodial activity against chloroquine-resistant Plasmodium falciparum Dd2 ring stage at 40 uM incubated for 72 hrs by DAPI-staining based imaging analysis; format: functional, organism-based
Plasmodium falciparum [10] = assay: Antiplasmodial activity against chloroquine-sensitive Plasmodium falciparum 3D7 ring stage at 40 uM incubated for 72 hrs by DAPI-staining based imaging analysis; format: functional, organism-based

Row | Structure (SMILES) | selectivity ratio [1] | pIC50 (HEK293 [2]) | pIC50 (Plasmodium falciparum [3]) | selectivity ratio [4] | pIC50 (Plasmodium falciparum [5]) | Activity (HEK293 [6]) | Activity (HEK293 [7]) | Activity (HEK293 [8]) [%] | Activity (Plasmodium falciparum [9]) | Activity (Plasmodium falciparum [10])
1 | CN[C@@H](CCN(C)CCc1cc(OC)c(Br)cc1Br)C(=O)N(C)CCCN(C)CCc1cc(OC)c(Br)cc1Br | 13 | 4.96 | 6.07 | 20 | 6.24 | – | – | – | – | –
2 | CN[C@@H](CCN(C)CCc1cc(OC)c(Br)cc1Br)C(=O)NCCCN(C)CCc1cc(OC)c(Br)cc1Br | 21 | – | 5.72 | 25 | 5.80 | Non-Toxic | – | – | – | –
3 | COc1cc(CCN(C)CCCN(C)C)c(Br)cc1Br | – | 4.77 | – | 10 | 5.77 | – | – | – | – | –
4 | C[C@H]1[C@@H](O)O[C@@H]2O[C@@]3(C)CC[C@H]4[C@H](C)CC[C@@H]1[C@@]24OO3 [ARTENIMOL] | 57 | – | – | 62 | 8.70 | – | Non-Toxic | – | – | –
5 | CCN(CC)CCCC(C)Nc1ccnc2cc(Cl)ccc12 (stereo not drawn) [CHLOROQUINE] | – | – | – | – | – | – | – | 67 | – | –
6 | COc1ccc(C[C@H](N)C(=O)N[C@H]2[C@@H](O)[C@H](n3cnc4c(N(C)C)ncnc43)O[C@@H]2CO)cc1 [PUROMYCIN] | 585 | 6.09 | 7.17 | 353 | – | – | – | – | – | –
7 | Cn1c(Br)c(C=O)c2cc(Br)ccc21 | – | – | – | – | – | Non-Toxic | – | – | inactive | inactive
8 | CNCCc1cc(OC)c(Br)cc1Br.O=C(O)C(F)(F)F | – | – | – | 4 | 4.96 | Non-Toxic | – | – | – | –
9 | COc1cc(CCN(C)CCCN(C)C(=O)[C@H](CCN(C)CCc2cc(OC)c(Br)cc2Br)N(C)C)c(Br)cc1Br | 53 | – | 6.12 | 66 | 6.21 | Non-Toxic | – | – | – | –
